Measured values as given in ChEMBL document CHEMBL1130607, “Reversal of multidrug resistance (MDR) by aspidofractinine-type indole alkaloids” (Bioorg Med Chem Lett, 1998).
Values after ≈ are worked out from the molar mass of the structure shown.

What follows are molecules tested on Epidermoid carcinoma cell line (assay: Compound was evaluated for cytotoxicity against vincristine- resistant (KB/VJ300) human oral epidermoid carcinoma cell line; poor activity or moderate activity). Conditions: not given.
Assay type: functional, cell-based

Q: `COC(=O)N1c2c(ccc3c2OCO3)[C@@]23CC(=O)N(CCCC4=CC[C@]12[C@](O)(C(=O)OC)C4)C3=O` [PAUCIFLORINE A] was tested. Which IC50 did it give?
A: poor activity or moderate activity

Q: For `CCO[C@H]1C[C@@H]2O[C@@H]3[C@]14CC[C@@]1(N(C(=O)OC)c5c(OC)cccc5[C@@]15CCN2[C@@H]45)[C@]3(O)C(=O)OC` [KOPSIDINE B], which IC50 is on record?
A: poor activity or moderate activity

Q: Which IC50 does the source give for `COC(=O)N1c2ccccc2[C@@]23[C@@H]4CN5CCC[C@]6(CC[C@]12[C@@H](O)[C@@H]6C4=O)[C@H]53` [FRUTICOSAMINE] here?
A: poor activity or moderate activity

Q: `COC(=O)N1c2c(ccc3c2OCO3)[C@]23CC(=O)C[C@@]4(CCCN(C=O)[C@@H]42)CCC13C(=O)OC` (stereo partly specified) [DANUPHYLLINE] was tested. Which IC50 did it give?
A: poor activity or moderate activity

Q: How did the IC50 turn out when `COC(=O)N1c2c(OC)cccc2[C@@]23CCN4C[C@H]5O[C@H]5[C@]5(CC[C@]12[C@](O)(C(=O)OC)[C@@H]5O)[C@H]43` was run?
A: poor activity or moderate activity

Q: Which IC50 does the source give for `COC(=O)N1c2c(OC)cccc2[C@@]23CCN4CC[C@H](O)[C@]5(CC[C@]12[C@](O)(C(=O)OC)[C@@H]5O)[C@H]43` [KOPSINGANOL] here?
A: poor activity or moderate activity

Q: With `COC(=O)N1c2c(ccc3c2OCO3)[C@]23[C@H]4OC(=O)[C@@]5(O)C[C@@]6(CCCN(C4=O)[C@@]62O)CC[C@]135` [paucidactine A] as the molecule, how does the IC50 read?
A: poor activity or moderate activity

Q: `COC(=O)N1c2c(OC)cccc2[C@@]23[C@H]4C(=O)[C@@]5(O)[C@H]6O[C@H]4N4CC[C@H](O)[C@]6(CC[C@]125)[C@H]43` was tested. Which IC50 did it give?
A: poor activity or moderate activity

What follows are molecules tested on Epidermoid carcinoma cell line (assay: Compound was evaluated for cytotoxicity against vincristine- sensitive (KB/S) human oral epidermoid carcinoma cell line at 7 ug/mL). Conditions: not given.
Assay type: functional

Q: For `COC(=O)C1=CC23CCCN4CC[C@@]5(c6cccc(OC)c6N(C(=O)OC)C15CC2)[C@@H]43` (stereo partly specified), which Cell growth is on record?
A: <50%

These molecules were tested on Epidermoid carcinoma cell line (assay: Compound was evaluated for cytotoxicity against vincristine- resistant (KB/VJ300) human oral epidermoid carcinoma cell line). Conditions: not given.
Assay type: functional, cell-based

Q: `COC(=O)[C@@H]1CC23CCCN4CC[C@@]5(c6ccccc6NC15CC2)[C@@H]43` (stereo partly specified) [KOPSININE] was tested. Which IC50 did it give?
A: 25 µg/mL (≈ 73.9 µM)

Q: `COC(=O)N1c2c(OC)cccc2[C@@]23CCN4CC=C[C@]5(CC[C@]12[C@](O)(C(=O)OC)[C@@H]5O)[C@H]43` [KOPSINGINE] was tested. Which IC50 did it give?
A: > 25 µg/mL

Q: `COC(=O)[C@@H]1CC23CCCN4CC[C@@]5(c6cccc(OC)c6N(C(=O)OC)C15CC2)[C@@H]43` (stereo partly specified) was tested. Which IC50 did it give?
A: 21 µg/mL (≈ 49.2 µM)

Q: For `COC(=O)N1c2c(OC)cccc2[C@@]23CCN4CCCC5(CCC12[C@](O)(C(=O)OC)C5)[C@H]43` (stereo partly specified) [KOPSILONGINE], which IC50 is on record?
A: 15.4 µg/mL (≈ 34.8 µM)

Each molecule was assayed on Epidermoid carcinoma cell line (assay: Compound was evaluated for cytotoxicity against vincristine-resistant (KB/VJ300) human oral epidermoid carcinoma cell line). Conditions: not given.
Assay type: functional, cell-based

Q: How did the IC50 turn out when `COC(=O)N1c2c(ccc3c2OCO3)[C@@]23CCN4CCCC5(CCC12[C@](O)(C(=O)OC)C5)[C@]43C#N` (stereo partly specified) [LAHADININE A] was run?
A: 2.5 µg/mL (≈ 5.19 µM)

Q: Which IC50 does the source give for `COC(=O)N1c2ccccc2[C@@]23CCN4CCCC5(CCC12[C@](O)(C(=O)OC)C5)[C@H]43` (stereo partly specified) [KOPSIFLORINE] here?
A: 2.3 µg/mL (≈ 5.58 µM)

Q: For `COC(=O)[C@@H]1CC23CCCN4CC[C@@]5(c6ccccc6N(C(=O)OC)C15CC2)[C@@H]43` (stereo partly specified) [PLEIOCARPINE], which IC50 is on record?
A: 3.1 µg/mL (≈ 7.82 µM)

Q: With `COC(=O)C1=CC23CCCN4CC[C@@]5(c6ccc7c(c6N(C(=O)OC)C15CC2)OCO7)[C@@H]43` (stereo partly specified) as the molecule, how does the IC50 read?
A: 4.4 µg/mL (≈ 10 µM)

Q: For `COC(=O)N1c2c(ccc(OC)c2OC)[C@@]23CCN4CCCC5(CCC12[C@](O)(C(=O)OC)C5)[C@H]43` (stereo partly specified), which IC50 is on record?
A: 1.6 µg/mL (≈ 3.39 µM)

Q: `COC(=O)N1c2c(ccc3c2OCO3)[C@@]23CCN4CCCC5(CCC12[C@](O)(C(=O)OC)C5)[C@H]43` (stereo partly specified) [KOPSAMINE] was tested. Which IC50 did it give?
A: 5.6 µg/mL (≈ 12.3 µM)

What follows are molecules tested on Epidermoid carcinoma cell line (assay: Compound was evaluated for cytotoxicity against vincristine- resistant (KB/VJ300) human oral epidermoid carcinoma cell line; P = poor activity or moderate activity). Conditions: Homo sapiens, Epidermoid carcinoma cell line; read-out: IC50.
Assay type: functional, cell-based

Q: Which IC50 does the source give for `COC(=O)N1c2c(ccc(O)c2OC)[C@@]23CCN4CCCC5(CCC12[C@](O)(C(=O)OC)C5)[C@H]43` (stereo partly specified) here?
A: > 25 µg/mL

Same assay, conditions: epidermoid carcinoma cell line

Q: Which IC50 does the source give for `COC(=O)N1c2c(OC)cccc2[C@@]23CCN4CCC[C@]5(CC[C@]12[C@](O)(C(=O)OC)[C@@H]5O)[C@H]43` [DIHYDROKOPSINGINE] here?
A: Poor or moderate activity
